{"source": "patent US20170173186A9", "about": "“MURINE WOUND MODEL FOR TESTING PATHOGEN VIRUENCE AND THERAPEUTIC EFFICACY” (priority 2013, published 2017)", "key": {"A. baumannii AB5075 [1]": {"tested_on": "A. baumannii AB5075", "assay": "Murine dorsal wound infection model, CFU burden in wound tissue (4 mm biopsy punch)", "type": "in vivo, Acinetobacter baumannii"}, "A. baumannii AB5075 [2]": {"tested_on": "A. baumannii AB5075", "assay": "Murine dorsal wound infection model (neutropenic BALB/c mice), wound area measurement and gross pathology", "type": "in vivo, Acinetobacter baumannii"}, "A. baumannii AB5075 [3]": {"tested_on": "A. baumannii AB5075", "assay": "Murine dorsal wound infection model, percent weight change", "type": "in vivo, Acinetobacter baumannii", "details": "for median loss of infection-day body weight: Day 1 post-infection; for maximal median loss of infection-day body weight: maximal loss over days 1 through 6 post-infection; for duration of significantly less weight loss than placebo: post-infection, Kruskal-Wallis test followed by Dunn's post-test", "method": "All procedures were performed in accordance with protocol IB02-10 that was approved by the Walter Reed Army Institute of Research (WRAIR)/Navy Medical Research Center (NMRC) Institutional Animal Care and Use Committee (Silver Spring, Md.). Mice received 150 mg/kg and 100 mg/kg cyclophosphamide intraperitoneal (IP) injections, before wounding and infection, on days −4 and −1, respectively (22, 24). On Day 0, the day of wounding and inoculum, mice were anesthetized with ketamine 130 mg/kg (KETASET®, Fort Dodge Animal Health, Fort Dodge, Iowa), xylazine 10 mg/kg (ANASED®, Lloyd Inc. Shenandoah, Iowa), and buprenorphine 0.05 mg/kg (Hospira Inc., Lake Forest, Ill.) injections. Hair was clipped from the cervical to mid-lumbar dorsum, and the skin scrubbed with iodine solution followed by an ethanol rinse. A 6.0 mm disposable skin biopsy punch (VisiPunch, Huot Instruments, LLC, Menomonee Falls, Wis.) was used to create a full-thickness skin defect overlying thoracic spinal column and the adjacent musculature. Twenty-five μL containing 5.0×10^4 AB5075 cells in a PBS suspension were pipetted into the wound, and allowed to absorb for three minutes. A circular cutout (30 mm diameter) of transparent dressing (TEGADERM™Roll, 3M Health Care, St. Paul, Minn.) was placed over the wound and secured with tissue adhesive (VETBOND™, 3M Animal Care, St. Paul, Minn.). […] However, the size of the wound was increased to 6 mm in order to facilitate subsequent punch biopsies to measure bacterial burden in the wound tissue.\n(§1) Beginning four hours post-inoculation, mice were treated with either rifampin at 25 mg/kg IP injection once daily, doxycycline 25 mg/kg IP injection twice daily, or an equivalent vehicle control over the course of a six day treatment period (25, 26). On Day 7 the transparent dressing was removed, treatment discontinued, and the wound monitored for closure through Day 25.\nAll statistical analyses were carried out using Graphpad Prism software. […] CFU burdens were compared via the Kruskal-Wallis test followed by Dunn's multiple comparison tests. All results were considered significant if p<0.05."}, "A. baumannii AB5075 [4]": {"tested_on": "A. baumannii AB5075", "details": "cited from earlier work"}, "A. baumannii AB5075 [5]": {"tested_on": "A. baumannii AB5075", "assay": "Murine dorsal wound infection model, time course histopathology of wounds (H&E)", "type": "in vivo, Acinetobacter baumannii"}, "A. baumannii AB5075 [6]": {"tested_on": "A. baumannii AB5075", "assay": "Murine dorsal wound infection model, SEM analysis of biofilm on occlusive dressings and wound tissue", "type": "in vivo, Acinetobacter baumannii"}, "A. baumannii AB5075 [7]": {"tested_on": "A. baumannii AB5075", "assay": "Murine dorsal wound infection model, PNA-FISH examination of AB5075 localization in wound tissue", "type": "in vivo, Acinetobacter baumannii", "details": "Day 1", "method": "All procedures were performed in accordance with protocol IB02-10 that was approved by the Walter Reed Army Institute of Research (WRAIR)/Navy Medical Research Center (NMRC) Institutional Animal Care and Use Committee (Silver Spring, Md.). Mice received 150 mg/kg and 100 mg/kg cyclophosphamide intraperitoneal (IP) injections, before wounding and infection, on days −4 and −1, respectively (22, 24). On Day 0, the day of wounding and inoculum, mice were anesthetized with ketamine 130 mg/kg (KETASET®, Fort Dodge Animal Health, Fort Dodge, Iowa), xylazine 10 mg/kg (ANASED®, Lloyd Inc. Shenandoah, Iowa), and buprenorphine 0.05 mg/kg (Hospira Inc., Lake Forest, Ill.) injections. […]\nas §1\nOne mouse from each treatment group (placebo, rifampin, and doxycycline) and from representative time points (Days 1, 3, and 7) were sacrificed in order to characterize the dissemination of AB5075 within wound tissue via peptide nucleic acid fluorescence in situ hybridization (PNA-FISH) (33). […]"}, "[8]": {"details": "Day 3 post-infection, BALB/c mice, IP treatment from 4 h post-inoculation (rifampin 25 mg/kg once daily, doxycycline 25 mg/kg twice daily)"}, "[9]": {"details": "Day 8 post-infection, one day after occlusive dressing removed, six day IP treatment"}, "[10]": {"details": "Day 15 post-infection, six day IP treatment"}, "[11]": {"details": "Day 21 post-infection, six day IP treatment"}}}
{"smiles": "C[C@H]1c2cccc(O)c2C(=O)C2=C(O)[C@]3(O)C(=O)C(C(N)=O)=C(O)[C@@H](N(C)C)[C@@H]3[C@@H](O)[C@@H]21", "note": "[doxycycline]", "values": [{"measurement": "median CFU burden", "setting": "A. baumannii AB5075 [1]; 3 days post-infection", "value": "5.0×10^4 CFU per 4 mm tissue biopsy punch"}, {"measurement": "median CFU burden", "setting": "A. baumannii AB5075 [1]; Day 7 post-infection", "value": "6.2×10^5 CFU per 4 mm tissue biopsy punch"}, {"measurement": "median CFU burden", "setting": "A. baumannii AB5075 [1]; after 24 hours of infection", "value": "5.9×10^5 CFU per 4 mm tissue biopsy punch"}, {"measurement": "median wound size", "setting": "A. baumannii AB5075 [2]; [8]", "value": 31.0, "unit": "mm^2"}, {"measurement": "median wound size", "setting": "A. baumannii AB5075 [2]; [9]", "value": 29.0, "unit": "mm^2"}, {"measurement": "median wound size", "setting": "A. baumannii AB5075 [2]; [10]", "value": 2.0, "unit": "mm^2"}, {"measurement": "median wound size", "setting": "A. baumannii AB5075 [2]; [11]", "value": 0.0, "unit": "mm^2"}, {"measurement": "median loss of infection-day body weight", "setting": "A. baumannii AB5075 [3]", "value": 5.3, "unit": "%"}, {"measurement": "maximal median loss of infection-day body weight", "setting": "A. baumannii AB5075 [3]", "value": 11.8, "unit": "%"}, {"measurement": "duration of significantly less weight loss than placebo", "setting": "A. baumannii AB5075 [3]", "value": 4, "unit": "days"}]}
{"smiles": "CO[C@H]1/C=C/O[C@@]2(C)Oc3c(C)c(O)c4c(O)c(c(/C=N/N5CCN(C)CC5)c(O)c4c3C2=O)NC(=O)/C(C)=C\\C=C\\[C@H](C)[C@H](O)[C@@H](C)[C@@H](O)[C@@H](C)[C@H](OC(C)=O)[C@@H]1C", "note": "[rifampin]", "values": [{"measurement": "MIC", "setting": "A. baumannii AB5075 [4]", "value": 4.0, "unit": "µg/mL"}, {"measurement": "histopathology of wound (H&E)", "setting": "A. baumannii AB5075 [5]; Day 15", "value": "re-epithelization over the wound was observed"}, {"measurement": "histopathology of wound (H&E)", "setting": "A. baumannii AB5075 [5]; Day 23", "value": "signs of contractile healing and re-epithelized wound beds"}, {"measurement": "biofilm on occlusive dressing by SEM", "setting": "A. baumannii AB5075 [6]; Day 3 (rifampin: Days 3 or 7) post-infection", "value": "no biofilm formation was observed on dressings"}, {"measurement": "bacteria on occlusive dressing by SEM", "setting": "A. baumannii AB5075 [6]; one day post-infection", "value": "no substantial amount of bacteria observed on the dressing"}, {"measurement": "median CFU burden", "setting": "A. baumannii AB5075 [1]; 3 days post-infection", "value": "4.7×10^4 CFU per 4 mm tissue biopsy punch"}, {"measurement": "median CFU burden", "setting": "A. baumannii AB5075 [1]; Day 7 post-infection", "value": "6.1×10^5 CFU per 4 mm tissue biopsy punch"}, {"measurement": "median CFU burden", "setting": "A. baumannii AB5075 [1]; after 24 hours of infection", "value": "5.7×10^5 CFU per 4 mm tissue biopsy punch"}, {"measurement": "reduction of median CFU burden versus placebo", "setting": "A. baumannii AB5075 [1]; after 24 hours of infection", "value": 1, "unit": "log"}, {"measurement": "median wound size", "setting": "A. baumannii AB5075 [2]; [8]", "value": 35.0, "unit": "mm^2"}, {"measurement": "median wound size", "setting": "A. baumannii AB5075 [2]; [9]", "value": 34.5, "unit": "mm^2"}, {"measurement": "median wound size", "setting": "A. baumannii AB5075 [2]; [10]", "value": 5.5, "unit": "mm^2"}, {"measurement": "median wound size", "setting": "A. baumannii AB5075 [2]; [11]", "value": 0.0, "unit": "mm^2"}, {"measurement": "A. baumannii cells in wound bed by Acinetobacter-specific PNA probe", "setting": "A. baumannii AB5075 [7]", "value": "clearance of A. baumannii cells below the level of detection at all levels of the wound bed"}, {"measurement": "median loss of infection-day body weight", "setting": "A. baumannii AB5075 [3]", "value": 6.7, "unit": "%"}, {"measurement": "maximal median loss of infection-day body weight", "setting": "A. baumannii AB5075 [3]", "value": 6.8, "unit": "%"}, {"measurement": "duration of significantly less weight loss than placebo", "setting": "A. baumannii AB5075 [3]", "value": 5, "unit": "days"}]}
